Counter-ions that a name gives are not always drawn.
Biological target: MCL-1 (Homo sapiens (Human), UniProt Q07820, K194A/K197A/R201A)
Assay: Protein-protein interaction assay MCL-1/Noxa BH3 peptide (MCL-1 assay, TR-FRET)
Assay type: binding
Conditions: MBP-MCL-1 / Noxa BH3 peptide, median
How it was run: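 MBP-fused MCL-1 (aa 173-329, 1 nM) was pre-incubated with compound for 10 min at 22° C, then biotinylated Noxa BH3 peptide (1 nM) was added with anti-MBP-Eu cryptate and streptavidin-XL665. Incubation was 1 h at 22° C, then overnight at 4° C, in Tris pH 7 buffer. The 665/620 nm ratio over 11 concentrations (0.1 nM-20 μM) gave IC50 by 4-parameter fit.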

MCL-1, sequence (Q07820 whole entry K194A/K197A/R201A, looked up): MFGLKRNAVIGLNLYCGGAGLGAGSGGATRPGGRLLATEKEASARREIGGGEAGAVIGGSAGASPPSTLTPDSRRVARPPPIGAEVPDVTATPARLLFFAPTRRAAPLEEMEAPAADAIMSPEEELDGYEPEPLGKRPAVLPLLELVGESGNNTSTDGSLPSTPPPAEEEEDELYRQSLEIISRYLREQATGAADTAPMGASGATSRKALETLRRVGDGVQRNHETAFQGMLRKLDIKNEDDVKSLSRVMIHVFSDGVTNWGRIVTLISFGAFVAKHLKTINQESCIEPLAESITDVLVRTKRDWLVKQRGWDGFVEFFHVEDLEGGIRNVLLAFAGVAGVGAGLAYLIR

| IC50 [nM] | Structure (SMILES) |
| --- | --- |
| 2.1 | Cc1c2c(nn1C)CN(C)S(=O)(=O)CCCn1c(C(=O)O)c(CCCOc3cccc4c3CCC4)c3ccc(F)c-2c31 (racemic) [Example 27, (rac)-1-(3-((2,3-Dihydro-1H-inden-4-yl)oxy)propyl)-13-fluoro-8,11,12-trimethyl-5,6,9,11-tetrahydro-4H,8H-pyrazolo[3′,4′:4,5][1]thia[2,8]diazacycloundecino[6,7,8-hi]indole-2-carboxylic acid 7,7-dioxide] |
| 1.7 | Cc1c2c(nn1C)CN(C)S(=O)(=O)CCCn1c(C(=O)O)c(CCCOc3cccc4cc(F)ccc34)c3ccc(F)c-2c31 (racemic) [Example 25, (rac)-13-Fluoro-1-(3-((6-fluoronaphthalen-1-yl)oxy)propyl)-8,11,12-trimethyl-5,6,9,11-tetrahydro-4H,8H-pyrazolo[3′,4′:4,5][1]thia[2,8]diazacycloundecino[6,7,8-hi]indole-2-carboxylic acid 7,7-dioxide] |
| 0.93 | Cc1c2c(nn1C)C(CCN1CCOCC1)N(C)S(=O)(=O)CCCn1c(C(=O)O)c(CCCOc3cccc4cc(F)ccc34)c3ccc(Cl)c-2c31 (racemic) [Example 48, (rac)-4-chloro-7-{3-[(6-fluoro-1-naphthyl)oxy]propyl}-2,3,14-trimethyl-15-(rac)-[2-(morpholin-4-yl)ethyl]-11,12,14,15-tetrahydro-2H,10H-pyrazolo[3′,4′:4,5][1,2,8]thiadiazacycloundecino[6,7,8-hi]indole-8-carboxylic acid 13,13-dioxide (Mixture of Stereoisomers)] |
| 9.8 | CCc1c2c(nn1C)CN(CCN1CCCCC1)S(=O)(=O)CCCn1c(C(=O)O)c(CCCOc3cccc4ccccc34)c3cccc-2c31 (racemic) [Example 14, (rac)-12-Ethyl-11-methyl-1-(3-(naphthalen-1-yloxy)propyl)-8-(2-(piperidin-1-yl)ethyl)-4,5,6,8,9,11-hexahydropyrazolo[3′,4′:4,5][1,2,8]thiadiazacycloundecino[6,7,8-hi]indole-2-carboxylic acid 7,7-dioxide 2,2,2-trifluoroacetic acid salt] |
| 1.7 | CCc1c2c(nn1C)CN(C)S(=O)(=O)CCCn1c(C(=O)O)c(CCCOc3cccc4cc(F)ccc34)c3ccc(F)c-2c31 (single isomer, unassigned; enantiomer 1) [Example 8, (+)-3-Ethyl-4-fluoro-7-{3-[(6-fluoronaphthalen-1-yl)oxy]propyl}-2,14-dimethyl-13,13-dioxo-10,11,12,13,14,15-hexahydro-2H-13λ^6-pyrazolo[3′,4′:4,5][1,2,8]thiadiazacycloundecino-[6,7,8-hi]indole-8-carboxylic acid (Enantiomer 1)] |
| 2.7 | CCc1c2c(nn1C)CN(C)S(=O)(=O)CCCn1c(C(=O)O)c(CCCOc3cccc4ccccc34)c3ccc(Cl)c-2c31 [Example 20, (rac)-13-Chloro-12-ethyl-8,11-dimethyl-1-(3-(naphthalen-1-yloxy)propyl)-5,6,9,11-tetrahydro-4H,8H-pyrazolo[3′,4′:4,5][1]thia[2,8]diazacycloundecino[6,7,8-hi]indole-2-carboxylic acid 7,7-dioxide] |
| 8.1 | CCc1c2c(nn1C)CNS(=O)(=O)CCCn1c(C(=O)O)c(CCCOc3cccc4ccccc34)c3cccc-2c31 (racemic) [Example 17, (rac)-12-Ethyl-11-methyl-1-(3-(naphthalen-1-yloxy)propyl)-4,5,6,8,9,11-hexahydropyrazolo[3′,4′:4,5][1,2,8]thiadiazacycloundecino[6,7,8-hi]indole-2-carboxylic acid 7,7-dioxide] |
| 1.1 | CCc1c2c(nn1C)C(CCC1CCOCC1)N(C)S(=O)(=O)CCCn1c(C(=O)O)c(CCCOc3cccc4cc(F)ccc34)c3ccc(Cl)c-2c31 (single isomer, unassigned; enantiomer 3) [Example 63, (+)-4-chloro-3-ethyl-7-{3-[(6-fluoronaphthalen-1-yl)oxy]propyl}-2,14-dimethyl-15-[2-(oxan-4-yl)ethyl]-13,13-dioxo-10,11,12,13,14,15-hexahydro-2H-13lambda^6-pyrazolo[3′,4′:4,5][1,2,8]thiadiazacycloundecino[6,7,8-hi]indole-8-carboxylic acid (Enantiomer 3)] |

| Structure (SMILES) | IC50 [nM] |
| --- | --- |
| Cc1c2c(nn1C)CN(C1CC1)S(=O)(=O)CCCn1c(C(=O)O)c(CCCOc3cccc4cc(F)ccc34)c3ccc(Cl)c-2c31 (single isomer, unassigned; enantiomer 1) [Example 42, (−)-4-chloro-14-cyclopropyl-7-{3-[(6-fluoro-1-naphthyl)oxy]propyl}-2,3-dimethyl-11,12,14,15-tetrahydro-2H,10H-pyrazolo[3′,4′:4,5][1,2,8]thiadiazacycloundecino[6,7,8-hi]indole-8-carboxylic acid 13,13-dioxide N-diethylamine salt (Enantiomer 1)] | 0.34 |

Reference: patent US11401278B2, “Macrocyclic indole derivatives” (The Broad Institute, Inc., priority 2017, dated 2022)
